One may read the Kd as a measure of binding affinity in units of concentration.

Assay [1] concerns the target T1, Structural maintenance of chromosomes protein 1A (Homo sapiens, UniProt Q14683).
T1 sequence (Q14683 whole entry): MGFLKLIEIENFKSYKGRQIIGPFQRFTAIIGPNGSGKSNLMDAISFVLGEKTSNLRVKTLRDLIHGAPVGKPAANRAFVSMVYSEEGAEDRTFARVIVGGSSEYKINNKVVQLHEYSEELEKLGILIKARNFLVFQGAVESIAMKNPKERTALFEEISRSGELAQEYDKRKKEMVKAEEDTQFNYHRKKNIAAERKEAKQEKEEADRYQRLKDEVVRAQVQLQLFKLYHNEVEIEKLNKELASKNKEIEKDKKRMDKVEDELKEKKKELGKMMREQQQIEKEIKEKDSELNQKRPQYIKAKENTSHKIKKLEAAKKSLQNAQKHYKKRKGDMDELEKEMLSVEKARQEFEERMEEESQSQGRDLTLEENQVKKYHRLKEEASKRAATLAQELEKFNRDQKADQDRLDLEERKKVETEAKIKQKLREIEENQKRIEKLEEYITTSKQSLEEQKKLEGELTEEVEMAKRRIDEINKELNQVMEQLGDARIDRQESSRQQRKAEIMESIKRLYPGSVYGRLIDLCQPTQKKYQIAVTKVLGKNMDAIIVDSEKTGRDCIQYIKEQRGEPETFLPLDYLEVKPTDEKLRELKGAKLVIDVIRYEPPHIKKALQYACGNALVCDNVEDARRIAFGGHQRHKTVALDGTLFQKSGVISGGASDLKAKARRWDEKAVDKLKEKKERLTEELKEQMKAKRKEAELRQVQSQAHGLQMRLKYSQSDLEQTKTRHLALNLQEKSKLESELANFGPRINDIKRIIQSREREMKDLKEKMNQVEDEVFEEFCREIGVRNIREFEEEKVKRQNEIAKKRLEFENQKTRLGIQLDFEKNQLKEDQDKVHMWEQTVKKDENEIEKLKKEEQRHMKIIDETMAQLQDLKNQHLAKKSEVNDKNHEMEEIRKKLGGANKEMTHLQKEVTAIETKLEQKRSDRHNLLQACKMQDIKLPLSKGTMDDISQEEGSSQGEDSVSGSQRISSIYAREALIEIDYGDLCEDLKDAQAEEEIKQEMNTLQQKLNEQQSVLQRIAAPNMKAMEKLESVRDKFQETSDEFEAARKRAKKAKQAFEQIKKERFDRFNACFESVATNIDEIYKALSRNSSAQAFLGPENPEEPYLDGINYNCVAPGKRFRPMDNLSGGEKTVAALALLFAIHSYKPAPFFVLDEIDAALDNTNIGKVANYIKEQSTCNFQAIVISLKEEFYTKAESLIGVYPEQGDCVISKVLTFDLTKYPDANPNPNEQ

Assay [2] deals with T2, Acyl-CoA dehydrogenase family member 10 (Homo sapiens, UniProt Q6JQN1).
T2 sequence (Q6JQN1 whole entry): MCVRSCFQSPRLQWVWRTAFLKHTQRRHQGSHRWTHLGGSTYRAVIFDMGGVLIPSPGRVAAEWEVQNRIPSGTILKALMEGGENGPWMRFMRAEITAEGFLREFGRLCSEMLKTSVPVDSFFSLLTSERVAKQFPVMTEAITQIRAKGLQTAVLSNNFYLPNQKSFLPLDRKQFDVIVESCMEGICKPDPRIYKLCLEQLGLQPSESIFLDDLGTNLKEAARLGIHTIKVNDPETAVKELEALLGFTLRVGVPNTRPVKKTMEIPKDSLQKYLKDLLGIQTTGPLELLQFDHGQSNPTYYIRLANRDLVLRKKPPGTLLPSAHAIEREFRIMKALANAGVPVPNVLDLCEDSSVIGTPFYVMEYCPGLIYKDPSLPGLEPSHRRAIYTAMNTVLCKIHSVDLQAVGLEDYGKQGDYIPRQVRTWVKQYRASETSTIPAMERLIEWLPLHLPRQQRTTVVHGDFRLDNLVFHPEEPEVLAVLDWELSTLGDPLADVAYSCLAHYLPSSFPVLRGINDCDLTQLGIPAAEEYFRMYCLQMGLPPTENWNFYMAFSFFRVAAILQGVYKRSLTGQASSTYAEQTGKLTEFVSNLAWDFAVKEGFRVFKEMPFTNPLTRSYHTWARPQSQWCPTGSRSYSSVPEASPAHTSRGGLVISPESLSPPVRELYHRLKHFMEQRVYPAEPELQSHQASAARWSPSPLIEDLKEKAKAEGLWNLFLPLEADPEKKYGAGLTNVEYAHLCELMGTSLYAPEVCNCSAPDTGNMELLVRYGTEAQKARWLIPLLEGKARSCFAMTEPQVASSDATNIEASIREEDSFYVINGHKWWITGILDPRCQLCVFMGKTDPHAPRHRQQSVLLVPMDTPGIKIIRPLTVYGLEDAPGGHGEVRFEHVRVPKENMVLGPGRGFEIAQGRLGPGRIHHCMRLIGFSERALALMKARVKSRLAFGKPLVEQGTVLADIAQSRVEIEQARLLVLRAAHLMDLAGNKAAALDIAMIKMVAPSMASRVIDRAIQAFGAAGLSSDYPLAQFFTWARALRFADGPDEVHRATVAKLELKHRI

The target in assay [3] is T3, Serine/threonine-protein kinase TBK1 (Homo sapiens, UniProt Q9UHD2).
T3 sequence (Q9UHD2 whole entry): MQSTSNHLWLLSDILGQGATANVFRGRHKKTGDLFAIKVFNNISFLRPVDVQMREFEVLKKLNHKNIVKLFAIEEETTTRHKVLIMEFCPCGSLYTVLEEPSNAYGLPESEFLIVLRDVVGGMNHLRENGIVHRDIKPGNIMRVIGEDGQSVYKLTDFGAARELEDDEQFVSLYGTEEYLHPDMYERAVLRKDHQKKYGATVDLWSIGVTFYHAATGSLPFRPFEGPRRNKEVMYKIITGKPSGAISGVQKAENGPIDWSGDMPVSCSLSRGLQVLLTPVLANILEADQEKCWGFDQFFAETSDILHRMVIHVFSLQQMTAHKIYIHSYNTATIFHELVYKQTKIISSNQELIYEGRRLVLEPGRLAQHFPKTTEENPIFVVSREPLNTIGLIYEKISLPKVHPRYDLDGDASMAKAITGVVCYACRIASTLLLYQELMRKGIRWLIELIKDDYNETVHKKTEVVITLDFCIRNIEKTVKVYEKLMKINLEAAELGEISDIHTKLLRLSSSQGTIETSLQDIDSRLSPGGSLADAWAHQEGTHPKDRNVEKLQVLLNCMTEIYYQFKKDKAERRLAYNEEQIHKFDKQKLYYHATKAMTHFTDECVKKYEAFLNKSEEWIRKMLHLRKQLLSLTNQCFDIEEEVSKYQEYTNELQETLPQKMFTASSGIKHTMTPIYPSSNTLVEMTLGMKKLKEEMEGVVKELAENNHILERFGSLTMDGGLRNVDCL

Assay [4] addresses Insulin-like growth factor 1 receptor (Homo sapiens, UniProt P08069).
For assay [5], the target named is Serine/threonine-protein kinase MRCK alpha (Homo sapiens, UniProt Q5VT25).
Sequence of Serine/threonine-protein kinase MRCK alpha (Q5VT25 whole entry): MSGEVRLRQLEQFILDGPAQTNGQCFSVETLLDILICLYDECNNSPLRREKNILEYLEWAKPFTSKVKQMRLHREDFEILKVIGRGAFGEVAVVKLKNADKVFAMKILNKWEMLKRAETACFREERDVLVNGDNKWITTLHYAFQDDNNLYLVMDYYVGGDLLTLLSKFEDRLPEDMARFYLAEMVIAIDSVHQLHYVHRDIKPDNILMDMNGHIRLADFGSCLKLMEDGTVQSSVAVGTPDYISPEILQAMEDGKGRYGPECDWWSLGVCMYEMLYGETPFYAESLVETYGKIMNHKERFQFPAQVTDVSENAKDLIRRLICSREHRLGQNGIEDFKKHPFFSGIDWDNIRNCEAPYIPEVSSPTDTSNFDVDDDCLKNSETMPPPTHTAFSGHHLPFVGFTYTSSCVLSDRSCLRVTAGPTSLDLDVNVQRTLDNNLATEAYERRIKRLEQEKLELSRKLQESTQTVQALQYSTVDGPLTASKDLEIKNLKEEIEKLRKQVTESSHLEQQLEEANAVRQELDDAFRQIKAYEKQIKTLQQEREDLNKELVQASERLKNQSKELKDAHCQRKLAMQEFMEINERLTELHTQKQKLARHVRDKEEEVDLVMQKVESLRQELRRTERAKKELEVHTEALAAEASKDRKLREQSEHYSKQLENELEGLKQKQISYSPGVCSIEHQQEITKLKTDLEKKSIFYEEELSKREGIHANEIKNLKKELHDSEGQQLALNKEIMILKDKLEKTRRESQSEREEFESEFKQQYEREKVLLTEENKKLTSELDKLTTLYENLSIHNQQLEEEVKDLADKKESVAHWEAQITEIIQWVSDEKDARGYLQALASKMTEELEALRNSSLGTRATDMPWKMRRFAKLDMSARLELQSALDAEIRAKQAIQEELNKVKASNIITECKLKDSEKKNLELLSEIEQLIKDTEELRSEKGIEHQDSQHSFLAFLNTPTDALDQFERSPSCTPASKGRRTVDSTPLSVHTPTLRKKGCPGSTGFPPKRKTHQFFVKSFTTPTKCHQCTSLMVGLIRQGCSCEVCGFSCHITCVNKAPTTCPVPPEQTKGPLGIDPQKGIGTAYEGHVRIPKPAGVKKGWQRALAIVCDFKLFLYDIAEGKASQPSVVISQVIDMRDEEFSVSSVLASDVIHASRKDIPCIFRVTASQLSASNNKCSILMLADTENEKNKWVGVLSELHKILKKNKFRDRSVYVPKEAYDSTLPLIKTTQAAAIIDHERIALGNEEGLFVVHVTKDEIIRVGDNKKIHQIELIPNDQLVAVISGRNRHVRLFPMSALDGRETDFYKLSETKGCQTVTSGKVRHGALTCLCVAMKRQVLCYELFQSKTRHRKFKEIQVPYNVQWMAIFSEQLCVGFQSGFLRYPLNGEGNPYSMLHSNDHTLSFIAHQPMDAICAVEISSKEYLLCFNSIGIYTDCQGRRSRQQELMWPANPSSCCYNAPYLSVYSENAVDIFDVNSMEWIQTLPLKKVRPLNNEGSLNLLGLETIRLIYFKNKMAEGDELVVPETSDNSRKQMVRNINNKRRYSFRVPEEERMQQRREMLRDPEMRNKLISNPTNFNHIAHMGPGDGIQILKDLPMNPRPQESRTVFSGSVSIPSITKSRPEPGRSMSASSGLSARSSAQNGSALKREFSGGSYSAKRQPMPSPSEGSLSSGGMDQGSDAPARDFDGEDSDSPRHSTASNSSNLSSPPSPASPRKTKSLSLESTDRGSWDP

Calls of active or inactive are those of the source. Some results are limits rather than exact numbers.
Further: in the data inactive means no Kd found up to 30 µM.

Sequence of Insulin-like growth factor 1 receptor (P08069 31-736 limits assumed): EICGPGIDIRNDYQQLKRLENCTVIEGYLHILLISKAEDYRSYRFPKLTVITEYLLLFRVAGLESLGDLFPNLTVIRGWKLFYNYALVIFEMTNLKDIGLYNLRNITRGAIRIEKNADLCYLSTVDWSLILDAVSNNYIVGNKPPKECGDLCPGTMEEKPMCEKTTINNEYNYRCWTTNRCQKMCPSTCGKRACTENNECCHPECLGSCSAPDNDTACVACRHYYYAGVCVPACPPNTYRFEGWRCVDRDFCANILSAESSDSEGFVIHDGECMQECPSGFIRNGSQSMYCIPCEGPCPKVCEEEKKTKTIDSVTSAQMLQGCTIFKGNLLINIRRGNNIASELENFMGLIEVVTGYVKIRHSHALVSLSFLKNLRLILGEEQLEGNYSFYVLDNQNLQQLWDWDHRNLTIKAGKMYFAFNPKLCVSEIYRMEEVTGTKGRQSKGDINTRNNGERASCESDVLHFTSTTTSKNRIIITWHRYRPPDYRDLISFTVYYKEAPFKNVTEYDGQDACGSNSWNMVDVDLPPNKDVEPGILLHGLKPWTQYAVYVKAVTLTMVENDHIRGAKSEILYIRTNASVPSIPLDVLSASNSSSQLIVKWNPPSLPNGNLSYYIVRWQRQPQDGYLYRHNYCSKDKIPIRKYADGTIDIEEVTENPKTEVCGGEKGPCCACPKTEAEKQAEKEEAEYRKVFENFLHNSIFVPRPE
Sequence of Insulin-like growth factor 1 receptor (P08069 741-1367 limits assumed): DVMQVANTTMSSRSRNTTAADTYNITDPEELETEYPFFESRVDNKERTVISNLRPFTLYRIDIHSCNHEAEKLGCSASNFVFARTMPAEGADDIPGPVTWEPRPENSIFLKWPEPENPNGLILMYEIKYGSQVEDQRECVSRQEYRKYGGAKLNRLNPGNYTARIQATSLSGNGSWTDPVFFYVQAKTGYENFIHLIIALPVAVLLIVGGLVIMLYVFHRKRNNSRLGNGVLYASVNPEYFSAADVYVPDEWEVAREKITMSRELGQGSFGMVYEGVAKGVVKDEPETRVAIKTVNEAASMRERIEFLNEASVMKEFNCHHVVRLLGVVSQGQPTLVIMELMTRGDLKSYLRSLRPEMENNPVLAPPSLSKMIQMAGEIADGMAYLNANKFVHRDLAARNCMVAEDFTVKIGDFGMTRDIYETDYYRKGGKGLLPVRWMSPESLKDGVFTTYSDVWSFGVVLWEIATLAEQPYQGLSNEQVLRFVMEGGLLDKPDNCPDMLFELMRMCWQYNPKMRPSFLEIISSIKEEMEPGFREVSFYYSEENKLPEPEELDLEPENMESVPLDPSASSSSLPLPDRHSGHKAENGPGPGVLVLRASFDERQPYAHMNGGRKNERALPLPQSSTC

Take `C[C@@H](Nc1cc(F)cc(F)c1)c1cc(C(=O)N(C)C)cc2c(=O)cc(N3CCOCC3)oc12` [AZD-8186]: the Kd in assay [1], in assay [2], in assay [3], in assay [4] and in assay [5] was > 30 µM (inactive) throughout.

Take `COc1cc(OC)c(/C=C/S(=O)(=O)Cc2ccc(OC)c(NCC(=O)O)c2)c(OC)c1` [RIGOSERTIB]: the Kd in assay [1], in assay [2], in assay [3], in assay [4] and in assay [5] was > 30 µM (inactive) in each case.

On to `CC[C@H](Nc1ncnc2[nH]cnc12)c1nc2cccc(F)c2c(=O)n1-c1ccccc1` [IDELALISIB], for which the Kd in assay [1], in assay [2], in assay [3], in assay [4] and in assay [5] was > 30 µM (inactive) in each case.

Regarding `C[C@@H](c1ccc2nccn2c1)n1nnc2ncc(-c3cnn(C)c3)nc21` [SAVOLITINIB], the Kd in assay [1], in assay [2], in assay [3], in assay [4] and in assay [5] was > 30 µM (inactive) each time.

For the compound `CN1N=C(N)c2cn([C@@H]3O[C@H](COP(=O)(O)O)[C@@H](O)[C@H]3O)c3ncnc1c23` [TRICIRIBINE PHOSPHATE], the Kd in assay [1], in assay [2], in assay [3] and in assay [4] was > 30 µM (inactive) throughout.

For the compound `CNC(=O)CN1CCC(Oc2cc3c(Nc4cccc(Cl)c4F)ncnc3cc2OC)CC1` [SAPITINIB], the Kd in assay [1], in assay [2], in assay [3], in assay [4] and in assay [5] was > 30 µM (inactive) each time.

`Cc1nc(N)sc1-c1ccnc(Nc2ccc(N3CCOCC3)cc2)n1` [CYC-116]: the Kd in assay [1] was > 30 µM (inactive); in assay [2] it was 0.716 µM.

As to `Cc1cc(Nc2cc(N3CCN(C)CC3)nc(/C=C/c3ccccc3)n2)n[nH]1` [ENMD-2076], the Kd in assay [1] and in assay [2] was > 30 µM (inactive) in each case.

For the compound `O=C(Nc1cccc(Cl)c1)Nc1ncc(CCNc2ncnc3ccsc23)s1` [SNS-314], the Kd in assay [1] and in assay [2] was > 30 µM (inactive) each time.

For `CN1CCN(c2ccc3nc(-c4c(N)c5c(F)cccc5[nH]c4=O)[nH]c3c2)CC1` [DOVITINIB], the Kd in assay [1] and in assay [2] was > 30 µM (inactive) each time.

Turning to `COc1cc(N2CCC(N3CCN(C)CC3)CC2)ccc1Nc1ncnc(Nc2ccccc2S(=O)(=O)C(C)C)n1` [ASP-3026], the values for the Kd in assay [3], in assay [4] and in assay [5] were > 30 µM (inactive), 9.72 µM (active) and > 30 µM (inactive), respectively.

As to `CN1CCC(CNc2ccc3ncc(-c4cccc(OC(F)(F)F)c4)n3n2)CC1` [SGI-1776], the Kd in assay [1], in assay [2], in assay [3] and in assay [4] was > 30 µM (inactive) in each case.

Regarding `CCc1cnn2c(NCc3ccc[n+]([O-])c3)cc(N3CCCC[C@H]3CCO)nc12` [DINACICLIB], the Kd in assay [1], in assay [2] and in assay [5] was > 30 µM (inactive) in each case.

Turning to `Cn1ncc(Cl)c1-c1cc(C(=O)N[C@H](CN)Cc2cccc(F)c2)sc1Cl` [AFURESERTIB], the Kd in assay [1], in assay [3], in assay [4] and in assay [5] was > 30 µM (inactive) throughout.

With `OCCn1cc(-c2cnc3nnn(Cc4ccc5ncccc5c4)c3n2)cn1` [PF-04217903], the Kd in assay [2] and in assay [5] was > 30 µM (inactive) in each case.

As for `CCN1CCN(Cc2ccc(-c3cc4c(N[C@H](C)c5ccccc5)ncnc4[nH]3)cc2)CC1` [AEE-788], the Kd in assay [1], in assay [3], in assay [4] and in assay [5] was > 30 µM (inactive) throughout.

Turning to `CCn1c(-c2nonc2N)nc2c(C#CC(C)(C)O)ncc(OC[C@H]3CCCNC3)c21` [GSK-690693], the Kd in assay [1] and in assay [2] was > 30 µM (inactive) in each case.

In the case of `Cn1cc(-c2ccc(F)c(C(F)(F)F)c2)nc1C1CCN(c2ncnc3[nH]ncc23)CC1` [LY-2584702], the Kd in assay [2], in assay [3], in assay [4] and in assay [5] was > 30 µM (inactive) throughout.

With `Cc1cn(-c2cc(NC(=O)c3ccc(C)c(Nc4nccc(-c5cccnc5)n4)c3)cc(C(F)(F)F)c2)cn1` [NILOTINIB], the Kd in assay [1] and in assay [2] was > 30 µM (inactive) each time.

For the compound `CNC(=O)c1ccc(C)c(-n2c(C)cc(OCc3ccc(F)cc3F)c(Br)c2=O)c1` [PH-797804], the Kd in assay [1], in assay [3], in assay [4] and in assay [5] was > 30 µM (inactive) throughout.

Turning to `O=C1NC(=O)/C(=C/c2ccc3nccc(-c4ccncc4)c3c2)S1` [GSK-1059615], the Kd in assay [1], in assay [3], in assay [4] and in assay [5] was > 30 µM (inactive) each time.

Values taken from ChEMBL document CHEMBL3991601, “The target landscape of clinical kinase drugs” (Science, 2017).
